Reference: US20240239806A1, “COMPOUNDS, COMPOSITIONS AND METHODS OF TREATING DISORDERS” (Chengdu Anticancer Bioscience, Ltd., priority 2021, published 2024)
Like-named read-outs stand apart in the source and are kept apart here.

What was measured:
[1] = tested on: cervical cancer cell line Hela; assay: Soft agar colony formation assay; format: cell-based, human
Text: (§1) Measuring the ability of cells to grow in soft agar has been popularly believed as the gold standard assay for cellular transformation in vitro. In the Soft Agar Assay, cells grow from single cells to cell colonies in a semi-solid agar solution that keeps them away from the solid surface and allows growth in an anchorage-independent way.
(§2) The anchorage-independent growth of cells is one of the hallmarks of cancer cells. Normal epithelial cells are supported by basement membranes that provide survival and proliferative signals while undergo a type of apoptosis called anoikis when lose their attachment to the extracellular matrix. Cancer cells, in contrast, evade detachment-induced apoptosis, leading to uncontrolled proliferation and metastasis. The Soft Agar Colony Formation Assay allows testing of the therapeutic efficacy of compounds against anchorage-independent 3D growth of cancer cells in vin. The assay was performed in 6-well plates with two layers of agar. For the first, 0.75% agar in DMEM medium was melted in a microwave oven and poured to form a bottom layer. Once solidified, 10-100K cells in 1 ml of DMEM containing 0.35% agar was added to form the top layer, which was later covered with 0.5 ml of DMEM. Cell culture medium was changed once every two days until colonies were ready to photograph. We test the antitumor activity of select compounds in soft agar colony formation assays. […] The suppression of growth of these three cancer cell lines in 3D culture is consistent with the potent impact of these compounds on cellular proliferation in 2D culture.

NCI-H596 [2] = assay: MTT assay of cellular proliferation; format: cell-based; conditions: Homo sapiens, 50% inhibition of cellular proliferation
Experimental: (§3) Six lung cancer cell lines (NCI-H23, NCI-H460, NCI-H596, NCI-H2170, Calu-6 and A549), two colon cancer cell lines (HCT116 and SW460), one breast cancer cell line MDA-MB-231, one gastric cancer cell line NCI-N87, one prostate cancer cell line DU145, one cervical cancer cell line Hela, and one glioblastoma cell line T98G were obtained from ATCC. The T2 HCC cell line was derived from a mouse liver cancer model initiated by a transgene of MYC. All cell lines were cultured in DMEM (Gibco, Cleveland, TN, USA) supplemented with 5% fetal bovine serum (Gibco), penicillin (100 U/mL)—streptomycin (100 μg/mL) (Gibco, Cat. No. 15140-122), 2 mM L-glutamine (Gibco, 200 mM solution, Cat. No. 25030081), and 1 mM sodium pyruvate (Gibco, 100 mM solution, Cat. No. 11360070) at 37° C. in a humidified incubator that was maintained at 5% CO2.
(§4) The MTT assay measures cellular metabolic activity as a proxy for cell viability and involves the conversion of the water-soluble yellow dye MTT [3-(4,5-dimethylthiazol-2-yl)-2,5-diphenyltetrazolium bromide] into an insoluble purple formazan by the action of mitochondrial reductase. Formazan is then solubilized and its concentration is determined by measuring the optical density (OD) value at a wavelength of 570 nm. The value is in proportional to the number of live cells with excellent linearity up to ˜10^6 cells per well. The MTT assay was used to determine the EC50 value, the concentration of a compound that leads to 50% inhibition of cellular proliferation. Briefly, cells were split when growing to the mid-Log phase. Cells in 100 μL of culture medium were seeded into each well of 96-well microplates and cultivated for 15-24 hours to reach a confluence of 20-30% and were then exposed to drugs at concentrations ranging from 1 nM to 30 μM. At the endpoint, 20 μL of a MTT stock solution in DMSO (5 mg/mL) was added to each well that contains 100 μL of DMEM. The microplates were left in the cell culture incubator for 3-4 h before subjected to solubilization and determination of formazan at A570 in a microplate reader (BioTek ELX808iu). […] Therefore, these compounds might hold a broad utility in the treatment of a large variety of human malignancies.

Hela [3] = assay: MTT assay of cellular proliferation; format: cell-based; conditions: Homo sapiens, 50% inhibition of cellular proliferation
Experimental: as §3, §4

NCI-H23 [4] = assay: MTT assay of cellular proliferation; format: cell-based; conditions: Homo sapiens, 50% inhibition of cellular proliferation
Experimental: as §3, §4

T98G [5] = assay: MTT assay of cellular proliferation; format: cell-based; conditions: Homo sapiens, 50% inhibition of cellular proliferation
Experimental: as §3, §4

NCI-H460 [6] = assay: MTT assay of cellular proliferation; format: cell-based; conditions: Homo sapiens, 50% inhibition of cellular proliferation
Experimental: as §3, §4

MDA-MB-231 [7] = assay: MTT assay of cellular proliferation; format: cell-based; conditions: Homo sapiens; MDA-MB-231, MTT, 50% inhibition of cellular proliferation
Experimental: as §3, §4

HCT116 [8] = assay: MTT assay of cellular proliferation; format: cell-based; conditions: Homo sapiens, HCT-116, 50% inhibition of cellular proliferation
Experimental: as §3, §4

T2 HCC [9] = assay: MTT assay of cellular proliferation; format: cell-based; conditions: Mus musculus, 50% inhibition of cellular proliferation
Experimental: as §3, §4

NCI-H596 [10] = assay: MECP in cancer cell line; format: cell-based; conditions: Homo sapiens
Experimental: as §3
(§5) We have previously developed a mechanism-informed phenotypic screening assay to identify novel antimitotic agents. Equipped with a prior understanding of the versatile functions of the chromosomal passenger protein (CPP) complex in orchestrating karyokinesis and cytokinesis, the screening assay is to score for phenotypes typically seen when the CPP complex is disabled. Specifically, the parameters for a positive hit are a temporary elevation of mitotic index (MI) at 24 hours of drug treatment and an accumulation of polyploid cells at 48 hours of drug treatment, indicative of mitotic arrest and cytokinetic failure respectively. These parameters exclude compounds that elicit only a prolonged arrest of cells in mitosis, a phenotype typically provoked by spindle toxins. The screening procedure is briefly summarized here. RPEMYC^H2B-GFP cells engineered to express a Histone 2B-EGFP fusion protein were passaged as batches of 96-well plates, 18-24 hours before exposure to the chemical compounds of the present disclosure at concentrations from 1 nM to 30 μM. At 24, 48 or 72 hours after initiation of treatment, cells were analyzed for either an arrest in mitosis or a change in DNA content by GE IN-Cell Analyzer 2000. As set forth in Table 2 below, a value of greater than or equal to 1 nM and less than or equal to 1.0 μM is marked “A”; a value greater than 1.00 μM and less than or equal to 10.0 μM is marked “B”; a value greater than 10.0 μM and less than or equal to 30.0 μM is marked “C”; and a value greater than 30.0 μM is marked “D.”

Hela [11] = assay: MECP in cancer cell line; format: cell-based; conditions: Homo sapiens
Experimental: as §3, §5

T98G [12] = assay: MECP in cancer cell line; format: cell-based; conditions: Homo sapiens
Experimental: as §3, §5

NCI-H460 [13] = assay: MECP in cancer cell line; format: cell-based; conditions: Homo sapiens
Experimental: as §3, §5

MDA-MB-231 [14] = assay: MECP in cancer cell line; format: cell-based; conditions: Homo sapiens
Experimental: as §3, §5

HCT116 [15] = assay: MECP in cancer cell line; format: cell-based; conditions: Homo sapiens, HCT-116
Experimental: as §3, §5

T2 HCC [16] = assay: MECP in cancer cell line; format: cell-based; conditions: Mus musculus
Experimental: as §3, §5

RPEMYC^H2B-GFP cells = assay: Phenotypic screening assay (mitotic arrest, polyploidy); format: cell-based; conditions: 1 nM to 30 μM; for IC50: read-out: Proliferative arrest (>50%)
In short: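 RPE cells expressing MYC and H2B-EGFP treated with compound at 1 nM–30 μM; mitotic index scored at 24 h and polyploidy (DNA content) at 48 h by automated imaging, with reads at 24, 48 or 72 h. Hits show transient mitotic arrest followed by polyploid accumulation.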

Human Cancer Cells = assay: Anchorage-independent growth in 3D culture (FIG. 3); format: cell-based; conditions: FIG. 3 legend, cell line not named
Text: as §1, §2

NCI-H23 [17] = assay: MECP in cancer cell line; format: cell-based; conditions: Homo sapiens
Experimental: as §3, with “CO2. […]” for “CO2.”

NCI-N87 [18] = assay: MTT assay of cellular proliferation; format: cell-based; conditions: Homo sapiens, 50% inhibition of cellular proliferation
Experimental: as §3, §4

A549 [19] = assay: MTT assay of cellular proliferation; format: cell-based; conditions: Homo sapiens, 50% inhibition of cellular proliferation
Experimental: as §3, §4

SW480 [20] = assay: MTT assay of cellular proliferation; format: cell-based; conditions: Homo sapiens, 50% inhibition of cellular proliferation
Experimental: as §3, §4

A549 [21] = assay: MECP in cancer cell line; format: cell-based; conditions: Homo sapiens
Experimental: as §3, §5

SW480 [22] = assay: MECP in cancer cell line; format: cell-based; conditions: Homo sapiens
Experimental: as §3, §5

NCI-N87 [23] = assay: MECP in cancer cell line; format: cell-based; conditions: Homo sapiens
Experimental: as §3, with “CO2. […]” for “CO2.”

[24] = read-out: Min. Effective conc. for Polyploidy (≥5%)

EC50 (NCI-H596 [2]) [nM]	EC50 (Hela [3]) [nM]	EC50 (NCI-H23 [4]) [nM]	EC50 (NCI-H460 [6]) [nM]	EC50 (MDA-MB-231 [7]) [nM]	EC50 (HCT116 [8]) [nM]	EC50 (T2 HCC [9]) [nM]	Compound	anchorage-independent growth in soft agar [1]	EC50 (T98G [5]) [nM]	minimal effective concentration (NCI-H596 [10]) [µM]	minimal effective concentration (Hela [11]) [µM]	minimal effective concentration (T98G [12]) [µM]	minimal effective concentration (NCI-H460 [13]) [µM]	minimal effective concentration (MDA-MB-231 [14]) [µM]	minimal effective concentration (HCT116 [15]) [µM]	minimal effective concentration (T2 HCC [16]) [µM]	minimal effective concentration (RPEMYC^H2B-GFP cells; [24]) [µM]	minimal effective concentration (RPEMYC^H2B-GFP cells; read-out: Mitotic Arrest (≥5%)) [µM]	IC50 (RPEMYC^H2B-GFP cells) [nM]	minimal effective concentration (NCI-H23 [17]) [µM]	further results
1000 to 10000	1 to 1000	1 to 1000	> 30000	1 to 1000	1 to 1000	1 to 1000	COC(=O)c1cc(OC)cc(Oc2ccnc3ccccc23)c1 [Compound 8, Methyl 3-methoxy-5-(quinolin-4-yloxy)benzoate]	effectively suppressed the anchorage-independent growth	1000 to 10000	0.001 to 1	0.001 to 1	1 to 10	1 to 10	0.001 to 1	0.001 to 1	0.001 to 1	0.001 to 1	0.001 to 1	1 to 1000	0.001 to 1	Anchorage-independent Growth of Human Cancer Cells in 3D Culture (Human Cancer Cells): Suppress the Anchorage-independent Growth
1000 to 10000	1 to 1000	1 to 1000	> 30000	1 to 1000	1 to 1000	1 to 1000	COC(=O)c1cc(Oc2ccnc3ccccc23)cc(C(=O)OC)c1 [Compound 15, dimethyl 5-(quinolin-4-yloxy)isophthalate]	effectively suppressed the anchorage-independent growth	1000 to 10000	0.001 to 1	0.001 to 1	1 to 10	1 to 10	0.001 to 1	0.001 to 1	0.001 to 1	0.001 to 1	0.001 to 1	1 to 1000	0.001 to 1	Anchorage-independent Growth of Human Cancer Cells in 3D Culture (Human Cancer Cells): Suppress the Anchorage-independent Growth
–	1 to 1000	1 to 1000	–	1 to 1000	1 to 1000	1 to 1000	COc1cc(NC(C)=O)cc(Oc2ccnc3ccccc23)c1 [Compound 14, N-(3-methoxy-5-(quinolin-4-yloxy)phenyl)acetamide]	–	–	–	0.001 to 1	–	–	0.001 to 1	0.001 to 1	0.001 to 1	0.001 to 1	0.001 to 1	1 to 1000	0.001 to 1	EC50 (NCI-N87 [18]): 1 to 1000 nM; EC50 (A549 [19]): 1 to 1000 nM; EC50 (SW480 [20]): 1 to 1000 nM; minimal effective concentration (A549 [21]): 0.001 to 1 µM; minimal effective concentration (SW480 [22]): 0.001 to 1 µM; minimal effective concentration (NCI-N87 [23]): 0.001 to 1 µM
